Measured values published in the NIST ThermoML archive (doi:10.1016/j.jct.2016.11.009).

Settings: Gas, Buoyancy - hydrostatic balance with magnetic suspension - one sinker

N#N [nitrogen]
Settings | mass density [kg/m3]
304.03 K, 17990 kPa | 190.64
304.1 K, 16877 kPa | 180.004
304.11 K, 6796 kPa | 75.316
304.11 K, 12948 kPa | 140.851
304.12 K, 5782 kPa | 64.151
304.13 K, 8812 kPa | 97.213
304.14 K, 4379 kPa | 48.633
304.15 K, 2926 kPa | 32.502
304.15 K, 7820 kPa | 86.489
304.15 K, 11901 kPa | 129.994
304.15 K, 15984 kPa | 171.278
304.16 K, 10861 kPa | 119.075
304.16 K, 14927 kPa | 160.84
304.17 K, 13944 kPa | 150.964
304.23 K, 9837 kPa | 108.209
304.55 K, 2607 kPa | 28.885
304.66 K, 3534 kPa | 39.15
304.66 K, 7983 kPa | 88.017
304.69 K, 7136 kPa | 78.822
304.73 K, 16296 kPa | 173.901
304.75 K, 8937 kPa | 98.306
304.75 K, 12245 kPa | 133.207
304.77 K, 4983 kPa | 55.145
304.77 K, 14270 kPa | 153.864
304.78 K, 10988 kPa | 120.097
304.8 K, 3016 kPa | 33.394
304.82 K, 5885 kPa | 65.065
304.83 K, 8012 kPa | 88.26
304.83 K, 10043 kPa | 110.076
304.88 K, 3013 kPa | 33.353
304.88 K, 18305 kPa | 192.939
304.89 K, 6933 kPa | 76.521
305.04 K, 4986 kPa | 55.132
305.17 K, 4987 kPa | 55.12
